Measurements published in paper PMC8659243, “Design, Synthesis and Tumour-Selective Toxicity of Novel 1-[3-{3,5-Bis(benzylidene)-4-oxo-1-piperidino}-3-oxopropyl]-4-piperidone Oximes and Related Quaternary Ammonium Salts” (Molecules, 2021).
Counter-ions that a name gives are not always drawn.

What was measured:
[1] = system: Ca9-22, HSC-2 and HSC-4 cells; assay: Average over Ca9-22, HSC-2 and HSC-4 neoplastic cells; type: cell-based, human; settings: for CC50: Homo sapiens, average of Ca9-22, HSC-2 and HSC-4, read-out: Average CC50; for Average SI: average of SI for Ca9-22, HSC-2 and HSC-4
Method: In order to assess whether the compounds in series 3 and 4 are more toxic to neoplasms than non-malignant cells, selective index (SI) figures were calculated. In the in vivo situation, a tumour is surrounded by a number of non-malignant cells.
In order to identify the most promising lead compounds in terms of both cytotoxic potencies and favourable SI values, potency–selectivity expression (PSE) values were computed. […] Outstanding results may be noted for four compounds that have PSE values in excess of 100,000 namely 3d, 4c–e. […] However, the relative SI/PSE distribution patterns between series 3 and 4 (from a to h) are nearly superimposable with each other (Figure 3). […] It has been reported that 3,5-bis(3-iodo-5-methoxy-4-propoxybenzylidene)-N-acetylpiperidin-4-one inhibited tubulin and destabilization of microtubules, while 3,5-bis(3,4,5-trimethoxybenzylidene)-N-benzoylpiperidin-4-one destabilizes the microtubules. Thus, it remained to investigate whether compound 4d acts as an inhibitor of the microtubule.
(§1) A literature procedure was followed when the compounds in series 3 and 4 were evaluated against three human oral squamous cell carcinoma cell lines Ca9-22 (RCB-1976), HSC-2 (RCB1945), HSC-4 (RCB1902) (purchased from RIKEN Cell Bank, Tukuba, Japan) and three human normal oral cells, gingival fibroblast (HGF), periodontal ligament fibroblast (HPLF) and pulp cells (HPC) (established according to the guideline of the intramural ethic committee, A0808) except the duration of incubation was increased from 24 h to 48 h. In brief, various concentrations of the compounds were added to the DMEM media, which was supplemented by 10% heat-inactivated fetal bovine serum. Incubation was undertaken at 37 °C. At the completion of the experiment, cell viability was determined by the MTT method.

KM12 cells = assay: NCI in vitro screen, colon cancer KM12; type: cell-based; settings: Homo sapiens
From the text: (§2) One particular reference drug is 5-fluorouracil, which is used in treating colon cancers.

HCT-116 cells = assay: NCI in vitro screen, colon cancer HCT-116; type: cell-based; settings: Homo sapiens
From the text: as §2

colon cancer cells = assay: NCI in vitro screen, average of colon cancer cells; type: cell-based; settings: Homo sapiens
From the text: as §2

HCC-2998 cells = assay: NCI in vitro screen, colon cancer HCC-2998; type: cell-based; settings: Homo sapiens
From the text: as §2

HCT-15 cells = assay: NCI in vitro screen, colon cancer HCT-15; type: cell-based; settings: Homo sapiens
From the text: as §2

HSC-4 cells = assay: Cytotoxicity against HSC-4 cells, MTT method, 48 h; type: cell-based, human; settings: for CC50: Homo sapiens, HSC-4, concentration required to kill 50% of the cells, 48 h, MTT, read-out: CC50 HSC-4; for SI HSC-4: average CC50 towards HGF, HPLF, HPC divided by CC50 against HSC-4
Method: as §1

HSC-2 cells = assay: Cytotoxicity against HSC-2 cells, MTT method, 48 h; type: cell-based, human; settings: for CC50: Homo sapiens, HSC-2, concentration required to kill 50% of the cells, 48 h, MTT; for SI HSC-2: average CC50 towards HGF, HPLF, HPC divided by CC50 against HSC-2
Method: as §1

K-562 cells = assay: NCI in vitro screen, leukemia K-562; type: cell-based; settings: Homo sapiens, K562
From the text: (§3) In view of the encouraging result with CEM leukemic cells, consideration was given to an assessment in the NCI in vitro screening program. The oximes, but not the quaternary ammonium salts, were accepted for bioevaluation. Examination of the mean graphs confirms the sensitivity of leukemic cells to these compounds.

[2] = Cytotoxicity against non-malignant HPC cells, MTT method, 48 h; type: cell-based; settings: human, pulp cells (HPC)
Method: as §1

All Cell Lines = assay: NCI in vitro screen, all cell lines; type: cell-based; settings: Homo sapiens
From the text: as §2

HT29 cells = assay: NCI in vitro screen, colon cancer HT29; type: cell-based; settings: Homo sapiens, HT-29
From the text: as §2

[3] = Cytotoxicity against non-malignant HPLF cells, MTT method, 48 h; type: cell-based; settings: human, periodontal ligament fibroblasts (HPLF)
Method: as §1

Colo205 cells = assay: NCI in vitro screen, colon cancer Colo205; type: cell-based; settings: Homo sapiens, COLO 205
From the text: as §2

[4] = Cytotoxicity against non-malignant HGF cells, MTT method, 48 h; type: cell-based; settings: human, gingival fibroblasts (HGF)
Method: as §1

[5] = Average over HGF, HPLF and HPC non-malignant cells; type: cell-based; settings: human, HPLF and HPC non-malignant cells (average of the three)
Method: as §1

HL-60 (TB) cells = assay: NCI in vitro screen, leukemia HL-60 (TB); type: cell-based; settings: Homo sapiens
From the text: as §3

Ca9-22 cells = assay: Cytotoxicity against Ca9-22 cells, MTT method, 48 h; type: cell-based, human; settings: for CC50: Homo sapiens, Ca9-22, concentration required to kill 50% of the cells, 48 h, MTT, read-out: CC50 Ca9-22; for SI Ca9-22: average CC50 towards HGF, HPLF, HPC divided by CC50 against Ca9-22
Method: as §1

SR cells = assay: NCI in vitro screen, leukemia SR; type: cell-based; settings: Homo sapiens
From the text: as §3

[6] = system: CEM T-lymphoblastic leukemia cells; assay: Cytotoxicity against CEM cells, MTT method, 24 h; type: cell-based; settings: Homo sapiens, CCRF-CEM, concentration required to inhibit cell growth by 50%
Method: The method used for the evaluation of various compounds against human CEM cells has been reported previously. In brief, cells were grown in RPMI-1640 medium supplemented with 10% heat-inactivated fetal bovine serum. Different concentrations of compounds were added to the media, and after 24 h incubation, cytotoxicity was measured by the MTT method.

Molt-4 cells = assay: NCI in vitro screen, leukemia Molt-4; type: cell-based; settings: Homo sapiens
From the text: as §3

SW-620 cells = assay: NCI in vitro screen, colon cancer SW-620; type: cell-based; settings: Homo sapiens
From the text: as §2

RPMI-8226 cells = assay: NCI in vitro screen, leukemia RPMI-8226; type: cell-based; settings: Homo sapiens
From the text: as §3

leukemia cells = assay: NCI in vitro screen, average of leukemia cells; type: cell-based; settings: Homo sapiens
From the text: as §3

O=C1/C(=C/c2ccc(F)cc2)CN(C(=O)CCN2CCC(=NO)CC2)C/C1=C\c1ccc(F)cc1 [Compound 3b, (3~{E},5~{E})-3,5-bis[(4-fluorophenyl)methylene]-1-[3-(4-hydroximino-1-piperidyl)propanoyl]piperidin-4-one hydrochloride]
CC50 [1]: 430 nM
Average SI [1]: 31.5
IC50 (KM12 cells): 230 nM
IC50 (HCT-116 cells): 220 nM
IC50 (colon cancer cells): 610 nM
IC50 (HCC-2998 cells): 1410 nM
IC50 (HCT-15 cells): 370 nM
CC50 (HSC-4 cells): 200 ± 80 nM
SI HSC-4 (HSC-4 cells): 52.0
CC50 (HSC-2 cells): 730 ± 130 nM
SI HSC-2 (HSC-2 cells): 14.3
IC50 (K-562 cells): 350 nM
CC50 at 48 h [2]: 14.2 ± 2 µM
IC50 (All Cell Lines): 1150 nM
IC50 (HT29 cells): 320 nM
CC50 at 48 h [3]: 9.73 ± 0.23 µM
IC50 (Colo205 cells): 1500 nM
CC50 at 48 h [4]: 7.12 ± 0.04 µM
CC50 at 48 h [5]: 10.4 µM
IC50 (HL-60 (TB) cells): 1550 nM
CC50 (Ca9-22 cells): 370 ± 190 nM
SI Ca9-22 (Ca9-22 cells): 28.1
IC50 (SR cells): 250 nM
IC50 [6]: 1.78 ± 0.21 µM
IC50 (Molt-4 cells): 330 nM
IC50 (SW-620 cells): 200 nM
IC50 (RPMI-8226 cells): 290 nM
IC50 (leukemia cells): 520 nM

O=C1/C(=C/c2ccc(Cl)cc2)CN(C(=O)CCN2CCC(=NO)CC2)C/C1=C\c1ccc(Cl)cc1 [Compound 3c, (3~{E},5~{E})-3,5-bis[(4-chlorophenyl)methylene]-1-[3-(4-hydroximino-1-piperidyl)propanoyl]piperidin-4-one hydrochloride]
CC50 [1]: 320 nM
Average SI [1]: 69.5
IC50 (KM12 cells): 220 nM
IC50 (HCT-116 cells): 210 nM
IC50 (colon cancer cells): 260 nM
IC50 (HCC-2998 cells): 310 nM
IC50 (HCT-15 cells): 270 nM
CC50 (HSC-4 cells): 180 ± 30 nM
SI HSC-4 (HSC-4 cells): 75.0
CC50 (HSC-2 cells): 660 ± 140 nM
SI HSC-2 (HSC-2 cells): 20.5
IC50 (K-562 cells): 160 nM
CC50 at 48 h [2]: 26.1 ± 35.9 µM
IC50 (All Cell Lines): 1620 nM
IC50 (HT29 cells): 300 nM
CC50 at 48 h [3]: 8.03 ± 0.06 µM
IC50 (Colo205 cells): 350 nM
CC50 at 48 h [4]: 6.4 ± 0.35 µM
CC50 at 48 h [5]: 13.5 µM
IC50 (HL-60 (TB) cells): 560 nM
CC50 (Ca9-22 cells): 120 ± 80 nM
SI Ca9-22 (Ca9-22 cells): 113
IC50 (SR cells): 40 nM
IC50 [6]: 15.9 ± 0.94 µM
IC50 (Molt-4 cells): 280 nM
IC50 (SW-620 cells): 150 nM
IC50 (RPMI-8226 cells): 160 nM
IC50 (leukemia cells): 240 nM

O=C1/C(=C/c2ccc(Cl)c(Cl)c2)CN(C(=O)CCN2CCC(=NO)CC2)C/C1=C\c1ccc(Cl)c(Cl)c1 [Compound 3d, (3~{E},5~{E})-3,5-bis[(3,4-dichlorophenyl)methylene]-1-[3-(4-hydroximino-1-piperidyl)propanoyl]piperidin-4-one hydrochloride]
CC50 [1]: 60 nM
Average SI [1]: 89.1
IC50 (KM12 cells): 250 nM
IC50 (HCT-116 cells): 320 nM
IC50 (colon cancer cells): 310 nM
IC50 (HCC-2998 cells): 360 nM
IC50 (HCT-15 cells): 270 nM
CC50 (HSC-4 cells): 70 nM
SI HSC-4 (HSC-4 cells): 51.3
CC50 (HSC-2 cells): 100 ± 20 nM
SI HSC-2 (HSC-2 cells): 35.9
IC50 (K-562 cells): 250 nM
CC50 at 48 h [2]: 4.97 ± 0.89 µM
IC50 (All Cell Lines): 1300 nM
IC50 (HT29 cells): 320 nM
CC50 at 48 h [3]: 3.9 ± 1.42 µM
IC50 (Colo205 cells): 390 nM
CC50 at 48 h [4]: 1.91 ± 0.22 µM
CC50 at 48 h [5]: 3.59 µM
IC50 (HL-60 (TB) cells): 1000 nM
CC50 (Ca9-22 cells): 20 ± 10 nM
SI Ca9-22 (Ca9-22 cells): 180
IC50 (SR cells): 100 nM
IC50 [6]: 8.49 ± 0.34 µM
IC50 (Molt-4 cells): 320 nM
IC50 (SW-620 cells): 230 nM
IC50 (RPMI-8226 cells): 230 nM
IC50 (leukemia cells): 370 nM
